In patent publication US20100041642A1, “UREA INHIBITORS OF MAP KINASES” (LOCUS PHARMACEUTICALS, INC., priority 2008, published 2010) one finds IC50 data, which are given here for 21 compounds.

The assay deals with p38 (Homo sapiens, UniProt Q16539). Nature of the assay: Protein Kinase Assay (33P incorporation from γ-[33P]ATP into GST-ATF-2). In kind it is biochemical. The following applies: 2 nM p38, preincubated 20 min at 30° C.; 10 uM cold ATP, 2 uM GST-ATF2, 70 min; read-out: ACT. (Activity), IC50 category in Protein Kinase Assay. How it is done: Protein Kinase Assay. The protein kinase activity of p38 was determined by measuring the incorporation of ^33P from γ-[^33P]ATP into the GST-ATF-2 substrate, amino acids 19-96 (Upstate, N.Y. USA). The reactions were carried out in a final volume of 50 μL of 24 mM Tris-HCl buffer, pH 7.5, containing 13 mM MgCl2, 12% Glycerol, 2% DMSO, 2 mM DTT, […] of γ-[^33P]ATP (1000 Ci/mmol; 1 Ci=37 GBq) (GE Healthcare, Piscataway, N.J.), 10 uM cold ATP (GE Healthcare, Piscataway, N.J.), and 2 uM GST-ATF2. Compounds were preincubated with 2 nM p38 for 20 min at 30° C.; the reactions were initiated by the addition of GST-ATF2 and ATP and incubated for 70 min at 30° C. before being stopped by the addition of 10 μL of 600 mM phosphoric acid. The phosphorylated substrate was captured on phosphocellulose 96-well plate (Millipore MAPHNOB 10), washed with 100 mM phosphoric acid, and counted in a BeckmenCoulter LS6500 liquid scintillation counter. […] (Activity).

Broadly, the IC50 is the midpoint of a concentration-inhibition curve.

Sequence of p38 (Q16539 whole entry, the tested form may be a part): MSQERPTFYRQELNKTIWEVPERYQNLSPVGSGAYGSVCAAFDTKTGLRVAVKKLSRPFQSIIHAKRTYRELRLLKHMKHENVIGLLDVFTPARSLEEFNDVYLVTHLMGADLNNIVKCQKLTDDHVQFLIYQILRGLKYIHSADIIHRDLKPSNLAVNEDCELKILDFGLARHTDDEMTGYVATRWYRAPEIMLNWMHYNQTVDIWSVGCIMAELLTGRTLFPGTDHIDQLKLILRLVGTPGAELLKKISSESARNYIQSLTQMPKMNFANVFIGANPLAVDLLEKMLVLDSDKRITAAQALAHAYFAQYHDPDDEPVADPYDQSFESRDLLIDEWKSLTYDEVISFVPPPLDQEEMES

For `Cc1ccc(NC(=O)Nc2cc(C(C)(C)C)oc2C(=O)N2CCN(C)C(=O)C2(C)C)cc1-c1ccc(CN2CCOCC2)cn1` [1-(5-tert-butyl-2-(2,2,4-trimethyl-3-oxopiperazine-1-carbonyl)furan-3-yl)-3-(4-methyl-3-(5-(morpholinomethyl)pyridin-2-yl)phenyl)urea], the concentration for half-maximal inhibition (IC50) was less than 100 nM.

For the compound `CCc1ccc(-c2cc(NC(=O)Nc3cc(C(C)(C)C)sc3C(=O)N3CCN(C)C(=O)C3(C)C)ccc2C)cn1` [1-(5-tert-butyl-2-(2,2,4-trimethyl-3-oxopiperazine-1-carbonyl)thiophen-3-yl)-3-(3-(6-ethylpyridin-3-yl)-4-methylphenyl)urea], the IC50 was less than 100 nM. Turning to `CCc1ccc(-c2cc(NC(=O)Nc3cc(C(C)(C)C)sc3C(=O)N3CCN(C)C(=O)C3(C)C)cc(F)c2C)cn1` [1-(5-tert-butyl-2-(2,2,4-trimethyl-3-oxopiperazine-1-carbonyl)thiophen-3-yl)-3-(3-(6-ethylpyridin-3-yl)-5-fluoro-4-methylphenyl)urea], the IC50 was less than 100 nM. For `COc1ccc(-c2cc(NC(=O)Nc3cc(C(C)(C)C)sc3C(=O)N3CCN(C)C(=O)C3(C)C)ccc2C)cn1` [1-(5-tert-butyl-2-(2,2,4-trimethyl-3-oxopiperazine-1-carbonyl)thiophen-3-yl)-3-(3-(6-methoxypyridin-3-yl)-4-methylphenyl)urea] the value was less than 100 nM; for `COc1ccc(-c2cc(NC(=O)Nc3cc(C(C)(C)C)sc3C(=O)N3CCN(C)C(=O)C3(C)C)cc(F)c2C)cn1` [1-(5-tert-butyl-2-(2,2,4-trimethyl-3-oxopiperazine-1-carbonyl)thiophen-3-yl)-3-(3-fluoro-5-(6-methoxypyridin-3-yl)-4-methylphenyl)urea], less than 100 nM. For `Cc1ccc(NC(=O)Nc2cc(C(C)(C)C)sc2C(=O)N2CCN(C)C(=O)C2(C)C)cc1-c1ccc(CN2CCOCC2)nc1` [1-(5-tert-butyl-2-(2,2,4-trimethyl-3-oxopiperazine-1-carbonyl)thiophen-3-yl)-3-(4-methyl-3-(6-(morpholinomethyl)pyridin-3-yl)phenyl)urea] the value was less than 100 nM; for `Cc1ccc(NC(=O)Nc2cc(C(C)(C)C)sc2C(=O)N2CCN(C)C(=O)C2(C)C)cc1-c1ccc(N2CCOCC2)nc1` [1-(5-tert-butyl-2-(2,2,4-trimethyl-3-oxopiperazine-1-carbonyl)thiophen-3-yl)-3-(4-methyl-3-(6-morpholinopyridin-3-yl)phenyl)urea], less than 100 nM; for `Cc1ccc(NC(=O)Nc2cc(C(C)(C)C)oc2C(=O)N2CCNC(=O)C2(C)C)cc1-c1ccc(OCCN(C)C)nc1` [1-(5-tert-butyl-2-(2,2-dimethyl-3-oxopiperazine-1-carbonyl)furan-3-yl)-3-(3-(6-(2-(dimethylamino)ethoxy)pyridin-3-yl)-4-methylphenyl)urea], less than 100 nM. On to `Cc1ccc(NC(=O)Nc2cc(C(C)(C)C)sc2C(=O)N2CCNC(=O)C2(C)C)cc1-c1ccc(CN2CCOCC2)nc1` [1-(5-tert-butyl-2-(2,2-dimethyl-3-oxopiperazine-1-carbonyl)thiophen-2-yl)-3-(4-methyl-3-(6-(morpholinomethyl)pyridin-3-yl)phenyl)urea], for which the IC50 is less than 100 nM.

As for `Cc1ccc(-c2ccc(N3CCOCC3)cn2)cc1NC(=O)Nc1cc(C(C)(C)C)sc1C(=O)N1CCNC(=O)C1(C)C` [1-(5-tert-butyl-2-(2,2-dimethyl-3-oxopiperazine-1-carbonyl)thiophen-3-yl)-3-(2-methyl-5-(5-morpholinopyridin-2-yl)phenyl)urea], the IC50 was less than 100 nM. The value for `COc1ccc(-c2cc(NC(=O)Nc3cc(C(C)(C)C)sc3C(=O)N3CCNC(=O)C3(C)C)ccc2C)cn1` [1-(5-tert-butyl-2-(2,2-dimethyl-3-oxopiperazine-1-carbonyl)thiophen-3-yl)-3-(3-(6-methoxypyridin-3-yl)-4-methylphenyl)urea] was less than 100 nM; that for `Cc1cc(NC(=O)Nc2cc(C(C)(C)C)sc2C(=O)N2CCNC(=O)C2(C)C)cc(-c2ccc(N3CCOCC3)cn2)c1` [1-(5-tert-butyl-2-(2,2-dimethyl-3-oxopiperazine-1-carbonyl)thiophen-3-yl)-3-(3-methyl-5-(5-morpholinopyridin-2-yl)phenyl)urea] was less than 100 nM; that for `Cc1ccc(NC(=O)Nc2cc(C(C)(C)C)sc2C(=O)N2CCNC(=O)C2(C)C)cc1-c1ccc(N2CCOCC2)cn1` [1-(5-tert-butyl-2-(2,2-dimethyl-3-oxopiperazine-1-carbonyl)thiophen-3-yl)-3-(4-methyl-3-(5-morpholinopyridin-2-yl)phenyl)urea] was less than 100 nM. Turning to `Cc1ccc(NC(=O)Nc2cc(C(C)(C)C)sc2C(=O)N2CCNC(=O)C2(C)C)cc1-c1ccc(N2CCOCC2)nc1` [1-(5-tert-butyl-2-(2,2-dimethyl-3-oxopiperazine-1-carbonyl)thiophen-3-yl)-3-(4-methyl-3-(6-morpholinopyridin-3-yl)phenyl)urea], the IC50 is less than 100 nM. For `CCN1CCN(C(=O)c2sc(C(C)(C)C)cc2NC(=O)Nc2ccc(C)c(-c3ccc(CN4CCOCC4)nc3)c2)C(C)(C)C1=O` [1-(5-tert-butyl-2-(4-ethyl-2,2-dimethyl-3-oxopiperazine-1-carbonyl)thiophen-3-yl)-3-(4-methyl-3-(6-(morpholinomethyl)pyridin-3-yl)phenyl)urea] the value was less than 100 nM; for `Cc1ccc(NC(=O)Nc2cc(C(C)(C)C)sc2C(=O)N2CCN(C(C)C)C(=O)C2(C)C)cc1-c1ccc(CN2CCOCC2)nc1` [1-(5-tert-butyl-2-(4-isopropyl-2,2-dimethyl-3-oxopiperazine-1-carbonyl)thiophen-3-yl)-3-(4-methyl-3-(6-(morpholinomethyl)pyridin-3-yl)phenyl)urea], less than 100 nM. On to `Cc1ccc(NC(=O)Nc2cc(C(C)(C)C)sc2C(=O)N2CCN(C)C(=O)C2)cc1-c1ccc(CN2CCOCC2)nc1` [1-(5-tert-butyl-2-(4-methyl-3-oxopiperazine-1-carbonyl)thiophen-3-yl)-3-(4-methyl-3-(6-(morpholinomethyl)pyridin-3-yl)phenyl)urea], for which the IC50 is less than 100 nM. As for `COc1ccc(-c2cc(NC(=O)Nc3sc(C(C)(C)C)cc3C(=O)N3CCN(C)C(=O)C3(C)C)c(F)cc2C)cn1` [1-(5-tert-butyl-3-(2,2,4-trimethyl-3-oxopiperazine-1-carbonyl)thiophen-2-yl)-3-(2-fluoro-5-(6-methoxypyridin-3-yl)-4-methylphenyl)urea], the IC50 was less than 100 nM.

Turning to `Cc1ccc(NC(=O)Nc2sc(C(C)(C)C)cc2C(=O)N2CCN(C)C(=O)C2(C)C)cc1-c1cnc(NCC(O)CO)nc1` (stereo not drawn) [1-(5-tert-butyl-3-(2,2,4-trimethyl-3-oxopiperazine-1-carbonyl)thiophen-2-yl)-3-(3-(2-(2,3-dihydroxypropylamino)pyrimidin-5-yl)-4-methylphenyl)urea], the IC50 was less than 100 nM. For `CCc1ccc(-c2cc(NC(=O)Nc3sc(C(C)(C)C)cc3C(=O)N3CCN(C)C(=O)C3(C)C)ccc2C)nc1` [1-(5-tert-butyl-3-(2,2,4-trimethyl-3-oxopiperazine-1-carbonyl)thiophen-2-yl)-3-(3-(5-ethylpyridin-2-yl)-4-methylphenyl)urea] the value was less than 100 nM; for `Cc1ccc(NC(=O)Nc2sc(C(C)(C)C)cc2C(=O)N2CCN(C)C(=O)C2(C)C)cc1-c1ccc(C(C)O)nc1` (stereo not drawn) [1-(5-tert-butyl-3-(2,2,4-trimethyl-3-oxopiperazine-1-carbonyl)thiophen-2-yl)-3-(3-(6-(1-hydroxyethyl)pyridin-3-yl)-4-methylphenyl)urea], less than 100 nM.
